Measured values reported in patent publication US8685974B2 (Bayer CropScience AG, priority 2009, dated 2014).
Where “and” joins values, the source holds several entries; their conditions need not be identical. Equal values may be shown once. Read-outs that look alike come from different tables or passages of the source. Marks after values point to notes of the source that are not given here.

Tests used:
Fusarium graminearum = format: cell-based; details: 50 μM; for % Inhibition of DON/AcDON at 50 μM: 7 days at 28° C.
Alternaria solani = test: Alternaria test (tomato) / protective; format: in vivo; details: 500 ppm active compound, protective spray, evaluated 7 days after inoculation
In short: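 Young tomato plants sprayed protectively with compound formulated in DMF with alkylaryl polyglycol ether emulsifier and diluted in water to the application rate. After inoculation, plants held at 96% rel. humidity and 20° C. Efficacy scored 7 days post-inoculation: 0% equals untreated control, 100% no infection.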

[1] = logP by HPLC on reversed phase columns, method [a] (pH 2.3); format: physicochemical; details: for log p: method [a]: pH 2.3, 0.1% phosphoric acid and acetonitrile as eluent, main isomer
Pyrenophora teres = test: In vivo test on Pyrenophora teres (barley net blotch); details: dose of 500 ppm; barley plants; grading 12 days after contamination
In short: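 Barley plants (Plaisant) grown at 12° C. sprayed at 1-leaf stage with compound in acetone/Tween/DMSO diluted in water; 24 h later inoculated with P. teres spores (12,000 spores/ml). Incubated 24 h at ~20° C., 100% RH, then 12 days at 80% RH; graded 12 days post-inoculation against untreated controls.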

Leptosphaeria nodorum = Leptosphaeria nodorum test (wheat) / protective; format: in vivo; details: 500 ppm active compound, protective spray, evaluated 7-9 days after inoculation
Experimental: Leptosphaeria nodorum Test (Wheat)/Protective
Solvent: 49 parts by weight of N,N-dimethylformamide
Emulsifier: 1 part by weight of alkylaryl polyglycol ether
To produce a suitable preparation of active compound, 1 part by weight of active compound is mixed with the stated amounts of solvent and emulsifier, and the concentrate is diluted with water to the desired concentration.
To test for protective activity, young wheat plants are sprayed with the preparation of active compound at the stated application rate. […] The plants are then placed in a greenhouse at 90% rel. atmospheric humidity and a temperature of 22° C.
Evaluation is carried out 7-9 days after the inoculation. 0% means an efficacy which corresponds to that of the control, whereas an efficacy of 100% means that no infection is observed.

Fusarium proliferatum = test: Production of fumonisin FB1 by Fusarium proliferatum (microtiter plate, HPLC-MS/MS and OD620); format: cell-based; details: for % inhibition FB1 production at 50 μM: 5 days at 20° C., HPLC-MS/MS; for % inhibition fungal growth at 50 μM: Fusarium proliferatum, OD620 at start and after 5 days
[2] = pH 2.7; for logP value of the minor isomer (in parenthesis in column Isomer ratio [d]): main value of the example measured by method [b]
Peronospora parasitica = test: In vivo test on Peronospora parasitica (crucifer downy mildew); details: dose of 500 ppm; cabbage plants; grading 5 days after contamination
Experimental: In Vivo Test on Peronospora parasitica (Crucifer Downy Mildew)
The active ingredients tested are prepared by homogenization in a mixture of acetone/Tween/DMSO, then diluted with water to obtain the desired active material concentration.
Cabbage plants (Eminence variety) in starter cups, sown on a 50/50 peat soil-pozzolana substrate and grown at 18-20° C., are treated at the cotyledon stage by spraying with the aqueous suspension described above.
(§1) Plants, used as controls, are treated with an aqueous solution not containing the active material.
After 24 hours, the plants are contaminated by spraying them with an aqueous suspension of Peronospora parasitica spores (50 000 spores per ml). The spores are collected from infected plant.
The contaminated cabbage plants are incubated for 5 days at 20° C., under a humid atmosphere.
Grading is carried out 5 days after the contamination, in comparison with the control plants.

Sphaerotheca fuliginea = test: In vivo test on Sphaerotheca fuliginea (cucurbits powdery mildew); details: dose of 500 ppm; gherkin plants; grading 12 days after contamination
Experimental: In Vivo Test on Sphaerotheca fuliginea (Cucurbits Powdery Mildew)
(§2) The active ingredients tested are prepared by homogenization in a mixture of acetone/tween/DMSO, then diluted with water to obtain the desired active material.
Gherkin plants (Vert petit de Paris variety) in starter cups, sown on a 50/50 peat soil-pozzolana substrate and grown at 20° C./23° C., are treated at the cotyledon Z10 stage by spraying with the aqueous suspension described above. Plants, used as controls, are treated with an aqueous solution not containing the active material.
After 24 hours, the plants are contaminated by spraying them with an aqueous suspension of Sphaerotheca fuliginea spores (100 000 spores per ml). The spores are collected from a contaminated plants. The contaminated gherkin plants are incubated at about 20° C./25° C. and at 60/70% relative humidity.
Grading (% of efficacy) is carried out 12 days after the contamination, in comparison with the control plants.

Puccinia recondita = test: In vivo test on Puccinia recondita (brown rust); details: dose of 500 ppm; wheat plants; grading 10 days after contamination
Experimental: In Vivo Test on Puccinia recondita (Brown Rust)
as §2
Wheat plants (Scipion variety) sown on 50/50 peat soil-pozzolana substrate in starter cups and grown at 12° C., are treated at the 1-leaf stage (10 cm tall) by spraying with the aqueous suspension described above.
as §1
After 24 hours, the plants are contaminated by spraying the leaves with an aqueous suspension of Puccinia recondita spores (100,000 spores per ml). The spores are collected from a 10-day-old contaminated wheat and are suspended in water containing 2.5 ml/l of tween 80 10%. The contaminated wheat plants are incubated for 24 hours at 20° C. and at 100% relative humidity, and then for 10 days at 20° C. and at 70% relative humidity.
Grading is carried out 10 days after the contamination, in comparison with the control plants.

## CC(C)Cn1cc(-c2ccnc(NC(=O)C(C)C)c2)c(-c2ccc(Cl)s2)n1 [Example 397]
Fusarium graminearum
  % Inhibition of fungal growth at 50 μM: 32%
  % Inhibition of DON/AcDON at 50 μM: 97%
Alternaria solani
  efficacy: 100%
[1]
  log p: 3.83^[a]
Pyrenophora teres
  protection: 90%

## CC(C)n1nc(C2CC2)c(-c2ccncc2)c1-c1ccc(Cl)s1 [Example 417]
Leptosphaeria nodorum
  efficacy: 80%
[1]
  log p: 2.44^[a]

## CCC(C)n1cc(-c2ccnc(NC(C)=O)c2)c(-c2ccc(Cl)s2)n1 (stereo not shown) [Example 110]
Leptosphaeria nodorum
  efficacy: 95%
Fusarium graminearum
  % Inhibition of fungal growth at 50 μM: 99%
  % Inhibition of DON/AcDON at 50 μM: 100%
Alternaria solani
  efficacy: 95%
Fusarium proliferatum
  % inhibition FB1 production at 50 μM: 99%
  % inhibition fungal growth at 50 μM: 86%
[2]
  log p: 2.94^[b]
Pyrenophora teres
  protection: 100%

## CC(C)Cn1cc(-c2ccnc3ccccc23)c(-c2ccc(Cl)s2)n1 [Example 421]
Alternaria solani
  efficacy: 89%
[1]
  log p: 3.69^[a]

## CCOC(=O)Cn1cc(-c2ccncc2)c(-c2ccc(Cl)s2)n1 [Example 63]
Peronospora parasitica
  protection: 94%
[2]
  log p: 1.67^[b]
Sphaerotheca fuliginea
  protection (% of efficacy): 88%

## CCC(=O)Nc1cc(-c2cn(CC(C)C)nc2-c2ccc(Cl)s2)ccn1 [Example 396]
Fusarium graminearum
  % Inhibition of fungal growth at 50 μM: 30%
  % Inhibition of DON/AcDON at 50 μM: 100%
Alternaria solani
  efficacy: 100%
[1]
  log p: 3.33^[a]
Pyrenophora teres
  protection: 70%

## CC(C)n1cc(-c2ccncc2)c(-c2ccc(C(F)(F)F)s2)n1 [Example 401]
Fusarium graminearum
  % Inhibition of fungal growth at 50 μM: 0%
  % Inhibition of DON/AcDON at 50 μM: 99%
Alternaria solani
  efficacy: 78%
[1]
  log p: 2.2^[a]

## FC(F)(F)c1ccc(-c2c(-c3ccncc3)cnn2C2CCCCO2)s1 (stereo not shown) [Example 403]
[1]
  log p: 1.94^[a]

## CCC(C)n1nc(C2CC2)c(-c2ccncc2)c1-c1ccc(Cl)s1 (stereo not shown) [Example 415]
[1]
  log p: 2.73^[a]

## CC(C)Cn1cc(-c2cc(O)ncn2)c(-c2ccc(Cl)s2)n1 [Example 422]
[1]
  log p: 2.84^[a]

## Cc1cn(-c2cc(-c3cn(CC(C)C)nc3-c3ccc(Cl)s3)ccn2)cn1 [Example 399]
Fusarium graminearum
  % Inhibition of fungal growth at 50 μM: 0%
  % Inhibition of DON/AcDON at 50 μM: 90%
Alternaria solani
  efficacy: 78%
[1]
  log p: 2.56^[a]

## CC#CCn1cc(-c2ccncc2)c(-c2ccc(Cl)s2)n1 [Example 51]
[2]
  logP value of the minor isomer (in parenthesis in column Isomer ratio [d]): (1.60)
  log p: 1.81^[b]
Puccinia recondita
  protection: 75%
Sphaerotheca fuliginea
  protection (% of efficacy): 100%

## CC(C)Cn1nc(C2CC2)c(-c2ccncc2)c1-c1ccc(Cl)s1 [Example 413]
Leptosphaeria nodorum
  efficacy: 70%
[1]
  log p: 2.61^[a]

## CC#Cc1c(-c2ccncc2)c(-c2ccc(Cl)s2)nn1Cc1ccc(OC)cc1 [Example 420]
[1]
  log p: 3.02^[a]
[1]; minor isomer, in parentheses in the Isomer ratio column, method [a], pH 2.3
  logP value of the minor isomer: (2.53)
Fusarium proliferatum
  % inhibition FB1 production at 50 μM: 90%
  % inhibition fungal growth at 50 μM: 21%

## Clc1ccc(-c2nn(C3CC3)cc2-c2ccncc2)s1 [Example 66]
[2]
  log p: 1.62^[b]
Pyrenophora teres
  protection: 92%
Puccinia recondita
  protection: 89% and 95%
Sphaerotheca fuliginea
  protection (% of efficacy): 95%

## Clc1ccc(-c2nn(CCN3CCOCC3)cc2-c2ccncc2)s1 [Example 60]
Peronospora parasitica
  protection: 98%
[2]
  log p: 0.52^[b]
Sphaerotheca fuliginea
  protection (% of efficacy): 75%

## Clc1ccc(-c2nn(Cc3ccccc3)cc2-c2ccncn2)s1 [Example 5]
Fusarium proliferatum
  % inhibition FB1 production at 50 μM: 81%
  % inhibition fungal growth at 50 μM: 0%
[2]
  logP value of the minor isomer (in parenthesis in column Isomer ratio [d]): (3.17)
  log p: 3.41^[b]
Pyrenophora teres
  protection: 70%

## Clc1ccc(-c2nn(CC3CCCO3)cc2-c2ccncc2)s1 (stereo not shown) [Example 56]
[2]
  logP value of the minor isomer (in parenthesis in column Isomer ratio [d]): (1.44)
  log p: 1.6^[b]
Sphaerotheca fuliginea
  protection (% of efficacy): 88%

## CC(C)n1nc(-c2ccc(Cl)s2)c(-c2ccncc2)c1C1CC1 [Example 418]
[1]
  log p: 2.44^[a]

## c1cc(-c2c[nH]nc2-c2cc3ccsc3s2)ccn1 [Example 409]
Leptosphaeria nodorum
  efficacy: 78%
[1]
  log p: 1.13^[a]

## CCC(C)n1cc(-c2cc[n+]([O-])cc2)c(-c2ccc(Cl)s2)n1 (stereo not shown) [Example 92]
[2]
  log p: 2.56^[b]
Sphaerotheca fuliginea
  protection (% of efficacy): 100%

## CC#Cc1[nH]nc(-c2ccc(Cl)s2)c1-c1ccncc1 [Example 419]
[1]
  log p: 1.44^[a]

## CC(C)CC(C)n1ncc(-c2ccncc2)c1-c1ccc(Cl)s1 (stereo not shown) [Example 14]
[2]
  log p: 2.42^[b]
Sphaerotheca fuliginea
  protection (% of efficacy): 78%

## CC#Cc1c(-c2ccncc2)c(-c2ccc(Cl)s2)nn1C(C)C [Example 412]
Leptosphaeria nodorum
  efficacy: 70%
Fusarium graminearum
  % Inhibition of fungal growth at 50 μM: 98%
  % Inhibition of DON/AcDON at 50 μM: 93%
Alternaria solani
  efficacy: 90%
[1]
  log p: 2.78^[a]

## CCC(C)n1nc(-c2ccc(Cl)s2)c(-c2ccncc2)c1C1CC1 (stereo not shown) [Example 416]
Leptosphaeria nodorum
  efficacy: 70%
Fusarium graminearum
  % Inhibition of fungal growth at 50 μM: 8%
  % Inhibition of DON/AcDON at 50 μM: 91%
[1]
  log p: 2.75^[a]

## CC(C)Cn1cc(-c2cc(N)ncn2)c(-c2ccc(Cl)s2)n1 [Example 423]
Leptosphaeria nodorum
  efficacy: 80%
Fusarium graminearum
  % Inhibition of fungal growth at 50 μM: 91%
  % Inhibition of DON/AcDON at 50 μM: 99%
Alternaria solani
  efficacy: 94%
[1]
  log p: 1.97^[a]
Pyrenophora teres
  protection: 75%

## CC(C)Cn1cc(-c2ccnc(NC(C)C)n2)c(-c2ccc(Cl)s2)n1 [Example 411]
Fusarium graminearum
  % Inhibition of fungal growth at 50 μM: 98%
  % Inhibition of DON/AcDON at 50 μM: 99%
[1]
  log p: 4.34^[a]

## CC(C)Cn1nc(-c2ccc(Cl)s2)c(-c2ccncc2)c1C1CC1 [Example 414]
Fusarium graminearum
  % Inhibition of fungal growth at 50 μM: 11%
  % Inhibition of DON/AcDON at 50 μM: 84%
[1]
  log p: 2.7^[a]

## Brc1ccc(-c2n[nH]cc2-c2ccncc2)s1 [Example 408]
Leptosphaeria nodorum
  efficacy: 78%
Fusarium graminearum
  % Inhibition of fungal growth at 50 μM: 0%
  % Inhibition of DON/AcDON at 50 μM: 97%
Alternaria solani
  efficacy: 70%
[1]
  log p: 0.94^[a]

## CC(C)Cn1cc(-c2ccnc(O)n2)c(-c2ccc(Cl)s2)n1 [Example 398]
[1]
  log p: 2.62^[a]

## CCC(C)n1cc(-c2ccncc2)c(-c2ccc(C(F)(F)F)s2)n1 (stereo not shown) [Example 400]
Fusarium graminearum
  % Inhibition of fungal growth at 50 μM: 0%
  % Inhibition of DON/AcDON at 50 μM: 99%
[1]
  log p: 2.58^[a]

## Clc1ccc(-c2nn(CCc3ccccc3)cc2-c2ccncc2)s1 [Example 58]
[2]
  log p: 2.3^[b]
Sphaerotheca fuliginea
  protection (% of efficacy): 81%

## CC(=O)Nc1nccc(-c2cn(CC(C)C)nc2-c2ccc(Cl)s2)n1 [Example 410]
Leptosphaeria nodorum
  efficacy: 94%
Fusarium graminearum
  % Inhibition of fungal growth at 50 μM: 0%
  % Inhibition of DON/AcDON at 50 μM: 83%
[1]
  log p: 3.04^[a]

## CC(C)C(C)n1ncc(-c2ccncc2)c1-c1ccc(Cl)s1 (stereo not shown) [Example 20]
Peronospora parasitica
  protection: at least 70%
[2]
  log p: 2.1^[b]

## CC(C)=CCn1cc(-c2ccncc2)c(-c2ccc(Cl)s2)n1 [Example 7]
[2]
  log p: 2.25^[b]
Sphaerotheca fuliginea
  protection (% of efficacy): 78%
